Experimental data published in patent publication US12053459B2, “CDK2 inhibitors and methods of using the same” (Cedilla Therapeutics, Inc., priority 2021, dated 2024).

Tests used:
Kuramochi cells = assay: BrdU cell proliferation assay (colorimetric ELISA), Kuramochi cells; assay type: cell-based; conditions: class symbols A-D
Method in brief: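 Proliferation was read as BrdU incorporation: a 1 h pulse, then fixation and peroxidase-antibody ELISA at 450 nm, with values normalized to DMSO after empty-well subtraction. Treatment lasted 4 days on Kuramochi cells seeded at 2,000/well, using four 3-fold compound dilutions from 10 mM stocks. RB^KO Kuramochi cells were run in parallel for specificity.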

CDK2/Cyclin E1(14-475) = CDK2/Cyclin E1(14-475) (Homo sapiens, UniProt P24941); assay: Caliper LabChip EZ Reader mobility shift assay, inhibition of CDK2/Cyclin E1 activity; assay type: biochemical; conditions: class symbols A-D
Method in brief: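 Mobility-shift readout of fluorescent peptide (1.5 μM final) phosphorylation by 2.5 nM CDK2/Cyclin E1(14-475) at 100 μM ATP, pH 7.5. Compounds pre-incubated 30 min with enzyme before substrate addition; 100-min reaction halted by EDTA, normalized % activity fitted to four-parameter curve for IC50.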

SMILES | IC50 (Kuramochi cells) | IC50 (CDK2/Cyclin E1(14-475))
CNC(=O)[C@H](CCCc1ccc(F)cc1)NC(=O)C1CN(C(=O)Cc2c[nH]c3cc(Cl)ccc23)CC2CN(C(=O)c3ccc(OC(C)C)c(OC)c3)CC21 (stereo partly shown) [I-144] | > 10 µM | 0.5 to 5 µM
COc1cc(C(=O)N2CC3CN(C(=O)Cc4c[nH]c5cc(Cl)ccc45)CC(C(=O)NC(CCCc4ccccc4)c4ncco4)C3C2)ccc1OC(C)C (stereo not shown) [I-149] | > 10 µM | 0.5 to 5 µM
COc1cc(C(=O)N2CC3CN(C(=O)Cc4c[nH]c5cc(Cl)ccc45)CC(C(=O)NC(CCCc4ccccc4)c4ccccn4)C3C2)ccc1OC(C)C (stereo not shown) [I-150] | 5 to 10 µM | 0.5 to 5 µM
COc1cc(C(=O)N2CC3CN(C(=O)Cc4c[nH]c5cc(Cl)ccc45)CC(C(=O)NC(CCCc4ccccc4)c4ncccn4)C3C2)ccc1OC(C)C (stereo not shown) [I-151] | 0.5 to 5 µM | ≤ 0.5 µM
CNC(=O)[C@H](CCCc1ccccc1)NC(=O)C1CN(C(=O)Cc2ccccc2)CC2CN(C(=O)c3ccc(OC(C)C)c(OC)c3)CC21 (stereo partly drawn) [I-154, 2-(4-isopropoxy-3-methoxybenzoyl)-N—((S)-1-(methylamino)-1-oxo-5-phenylpentan-2-yl)-5-(2-phenylacetyl)octahydro-1H-pyrrolo[3,4-c]pyridine-7-carboxamide] | > 10 µM | > 10 µM
CNC(=O)[C@H](CCCc1ccccc1)NC(=O)C1CN(C(=O)Cc2ccccn2)CC2CN(C(=O)c3ccc(OC(C)C)c(OC)c3)CC21 (stereo partly shown) [I-155] | > 10 µM | > 10 µM
CNC(=O)[C@H](CCCc1ccccc1)NC(=O)C1CN(C(=O)Cn2cnc3cc(Cl)ccc32)CC2CN(C(=O)c3ccc(OC(C)C)c(OC)c3)CC21 (stereo partly shown) [I-156] | > 10 µM | 0.5 to 5 µM
CNC(=O)[C@H](CCCc1ccccc1)NC(=O)C1CN(C(=O)CCc2c[nH]c3ccccc23)CC2CN(C(=O)c3ccc(OC(C)C)c(OC)c3)CC21 (stereo partly shown) [I-157] | > 10 µM | > 10 µM
CNC(=O)[C@H](CCCc1ccccc1)NC(=O)C1CN(C(=O)c2ccc3ncccc3c2)CC2CN(C(=O)c3ccc(OC(C)C)c(OC)c3)CC21 (stereo partly shown) [I-158] | > 10 µM | > 10 µM
CNC(=O)[C@H](CCCc1ccccc1)NC(=O)C1CN(C(=O)c2cn(C)c3ccccc23)CC2CN(C(=O)c3ccc(OC(C)C)c(OC)c3)CC21 (stereo partly shown) [I-159] | > 10 µM | > 10 µM
CNC(=O)[C@H](CCCc1ccccc1)NC(=O)C1CN(C(=O)c2cc3ccccc3cn2)CC2CN(C(=O)c3ccc(OC(C)C)c(OC)c3)CC21 (stereo partly shown) [I-160] | > 10 µM | > 10 µM
CNC(=O)[C@H](CCCc1ccccc1)NC(=O)C1CN(C(=O)Cn2ccc3ccccc32)CC2CN(C(=O)c3ccc(OC(C)C)c(OC)c3)CC21 (stereo partly shown) [I-161] | > 10 µM | > 10 µM
CNC(=O)[C@H](CCCc1ccccc1)NC(=O)C1CN(C(=O)c2cc3cc(C)ccc3[nH]2)CC2CN(C(=O)c3ccc(OC(C)C)c(OC)c3)CC21 (stereo partly shown) [I-162] | > 10 µM | > 10 µM
CNC(=O)[C@H](CCCc1ccccc1)NC(=O)C1CN(C(=O)c2cnc(OC)cn2)CC2CN(C(=O)c3ccc(OC(C)C)c(OC)c3)CC21 (stereo partly shown) [I-163] | > 10 µM | > 10 µM
CNC(=O)[C@H](CCCc1ccccc1)NC(=O)C1CN(C(=O)CCc2ccccn2)CC2CN(C(=O)c3ccc(OC(C)C)c(OC)c3)CC21 (stereo partly shown) [I-164] | > 10 µM | > 10 µM
CNC(=O)[C@H](CCCc1ccccc1)NC(=O)C1CN(C(=O)c2ccc3nccnc3c2)CC2CN(C(=O)c3ccc(OC(C)C)c(OC)c3)CC21 (stereo partly shown) [I-165] | > 10 µM | > 10 µM
CNC(=O)[C@H](CCCc1ccccc1)NC(=O)C1CN(C(=O)c2coc(C)n2)CC2CN(C(=O)c3ccc(OC(C)C)c(OC)c3)CC21 (stereo partly shown) [I-166] | > 10 µM | > 10 µM
CNC(=O)[C@H](CCCc1ccccc1)NC(=O)C1CN(C(=O)Cc2ccc3ncccc3c2)CC2CN(C(=O)c3ccc(OC(C)C)c(OC)c3)CC21 (stereo partly shown) [I-167] | > 10 µM | > 10 µM
CNC(=O)[C@H](CCCc1ccccc1)NC(=O)C1CN(C(=O)c2cc(-c3ccccc3)n[nH]2)CC2CN(C(=O)c3ccc(OC(C)C)c(OC)c3)CC21 (stereo partly shown) [I-168] | > 10 µM | > 10 µM
CNC(=O)[C@H](CCCc1ccccc1)NC(=O)C1CN(C(=O)C2(C)CCOCC2)CC2CN(C(=O)c3ccc(OC(C)C)c(OC)c3)CC21 (stereo partly shown) [I-169] | > 10 µM | > 10 µM
CNC(=O)[C@H](CCCc1ccccc1)NC(=O)C1CN(C(=O)c2cc3cccc(C)c3[nH]2)CC2CN(C(=O)c3ccc(OC(C)C)c(OC)c3)CC21 (stereo partly shown) [I-170] | > 10 µM | > 10 µM
CNC(=O)[C@H](CCCc1ccccc1)NC(=O)C1CN(C(=O)c2[nH]ccc2C)CC2CN(C(=O)c3ccc(OC(C)C)c(OC)c3)CC21 (stereo partly shown) [I-171] | > 10 µM | > 10 µM
CNC(=O)[C@H](CCCc1ccccc1)NC(=O)C1CN(C(=O)c2c[nH]c3cc(Cl)ccc23)CC2CN(C(=O)c3ccc(OC(C)C)c(OC)c3)CC21 (stereo partly shown) [I-172] | > 10 µM | > 10 µM
CNC(=O)[C@H](CCCc1ccccc1)NC(=O)C1CN(C(=O)Cc2c[nH]c3ccc(F)cc23)CC2CN(C(=O)c3ccc(OC(C)C)c(OC)c3)CC21 (stereo partly shown) [I-173] | > 10 µM | 0.5 to 5 µM

SMILES | IC50 (Kuramochi cells) | IC50 (CDK2/Cyclin E1(14-475))
CNC(=O)[C@H](CCCc1ccccc1)NC(=O)C1CN(C(=O)Cc2c[nH]c3cc(F)ccc23)CC2CN(C(=O)c3ccc(OC(C)C)c(OC)c3)CC21 (stereo partly shown) [I-174] | > 10 µM | 0.5 to 5 µM
CNC(=O)[C@H](CCCc1ccccc1)NC(=O)C1CN(C(=O)Cc2c[nH]c3c(C)cccc23)CC2CN(C(=O)c3ccc(OC(C)C)c(OC)c3)CC21 (stereo partly shown) [I-175] | > 10 µM | > 10 µM
CNC(=O)[C@H](CCCc1ccccc1)NC(=O)C1CN(C(=O)Cc2c[nH]c3cccc(OC)c23)CC2CN(C(=O)c3ccc(OC(C)C)c(OC)c3)CC21 (stereo partly shown) [I-176] | > 10 µM | > 10 µM
CNC(=O)[C@H](CCCc1ccccc1)NC(=O)C1CN(C(=O)C(C)(C)c2c[nH]c3ccccc23)CC2CN(C(=O)c3ccc(OC(C)C)c(OC)c3)CC21 (stereo partly shown) [I-177] | > 10 µM | > 10 µM
CNC(=O)[C@H](CCCc1ccccc1)NC(=O)C1CN(C(=O)Cc2cccc3[nH]ccc23)CC2CN(C(=O)c3ccc(OC(C)C)c(OC)c3)CC21 (stereo partly shown) [I-178] | > 10 µM | > 10 µM
CNC(=O)[C@H](CCCc1ccccc1)NC(=O)C1CN(C(=O)Cc2c[nH]c3ncccc23)CC2CN(C(=O)c3ccc(OC(C)C)c(OC)c3)CC21 (stereo partly shown) [I-179] | > 10 µM | > 10 µM
CNC(=O)[C@H](CCCc1ccccc1)NC(=O)C1CN(C(=O)c2cccc3[nH]ccc23)CC2CN(C(=O)c3ccc(OC(C)C)c(OC)c3)CC21 (stereo partly shown) [I-180] | > 10 µM | > 10 µM
CNC(=O)[C@H](CCCc1ccccc1)NC(=O)C1CN(C(=O)c2cnc3ccccc3c2)CC2CN(C(=O)c3ccc(OC(C)C)c(OC)c3)CC21 (stereo partly shown) [I-181] | > 10 µM | > 10 µM
CNC(=O)[C@H](CCCc1ccccc1)NC(=O)C1CN(C(=O)c2n[nH]c3ccccc23)CC2CN(C(=O)c3ccc(OC(C)C)c(OC)c3)CC21 (stereo partly shown) [I-182] | > 10 µM | > 10 µM
CNC(=O)[C@H](CCCc1ccccc1)NC(=O)C1CN(C(=O)c2cc(C)[nH]n2)CC2CN(C(=O)c3ccc(OC(C)C)c(OC)c3)CC21 (stereo partly shown) [I-183] | > 10 µM | > 10 µM
CNC(=O)[C@H](CCCc1ccccc1)NC(=O)C1CN(C(=O)c2ccc(C)cn2)CC2CN(C(=O)c3ccc(OC(C)C)c(OC)c3)CC21 (stereo partly shown) [I-184] | > 10 µM | > 10 µM
CNC(=O)[C@H](CCCc1ccccc1)NC(=O)C1CN(C(=O)c2sc(C)nc2C)CC2CN(C(=O)c3ccc(OC(C)C)c(OC)c3)CC21 (stereo partly shown) [I-185] | > 10 µM | > 10 µM
CNC(=O)[C@H](CCCc1ccccc1)NC(=O)C1CN(C(=O)Cc2nnn[nH]2)CC2CN(C(=O)c3ccc(OC(C)C)c(OC)c3)CC21 (stereo partly shown) [I-186] | > 10 µM | > 10 µM
CNC(=O)[C@H](CCCc1ccccc1)NC(=O)C1CN(C(=O)c2ocnc2C)CC2CN(C(=O)c3ccc(OC(C)C)c(OC)c3)CC21 (stereo partly shown) [I-187] | > 10 µM | > 10 µM
CNC(=O)[C@H](CCCc1ccccc1)NC(=O)C1CN(C(=O)c2oc(C)nc2C)CC2CN(C(=O)c3ccc(OC(C)C)c(OC)c3)CC21 (stereo partly shown) [I-188] | > 10 µM | > 10 µM
CNC(=O)[C@H](CCCc1ccccc1)NC(=O)C1CN(C(=O)c2ccc(C)[nH]2)CC2CN(C(=O)c3ccc(OC(C)C)c(OC)c3)CC21 (stereo partly shown) [I-189] | > 10 µM | > 10 µM
CNC(=O)[C@H](CCCc1ccccc1)NC(=O)C1CN(C(=O)c2c[nH]c3ccc(F)cc23)CC2CN(C(=O)c3ccc(OC(C)C)c(OC)c3)CC21 (stereo partly shown) [I-190] | > 10 µM | > 10 µM
CNC(=O)[C@H](CCCc1ccccc1)NC(=O)C1CN(C(=O)c2c[nH]c3c(C)cccc23)CC2CN(C(=O)c3ccc(OC(C)C)c(OC)c3)CC21 (stereo partly shown) [I-191] | > 10 µM | > 10 µM
CNC(=O)[C@H](CCCc1ccccc1)NC(=O)C1CN(C(=O)CCCc2ccccn2)CC2CN(C(=O)c3ccc(OC(C)C)c(OC)c3)CC21 (stereo partly shown) [I-192] | > 10 µM | > 10 µM
CNC(=O)[C@H](CCCc1ccccc1)NC(=O)C1CN(C(=O)c2ncoc2C)CC2CN(C(=O)c3ccc(OC(C)C)c(OC)c3)CC21 (stereo partly shown) [I-193] | > 10 µM | > 10 µM
CNC(=O)[C@H](CCCc1ccccc1)NC(=O)C1CN(C(=O)c2ncc(Cl)cn2)CC2CN(C(=O)c3ccc(OC(C)C)c(OC)c3)CC21 (stereo partly shown) [I-196] | > 10 µM | > 10 µM
CNC(=O)[C@H](CCCc1ccccc1)NC(=O)C1CN(C(=O)c2cc(Cl)[nH]n2)CC2CN(C(=O)c3ccc(OC(C)C)c(OC)c3)CC21 (stereo partly shown) [I-197] | > 10 µM | > 10 µM
CNC(=O)[C@H](CCCc1ccccc1)NC(=O)C1CN(C(=O)Cc2cc[nH]n2)CC2CN(C(=O)c3ccc(OC(C)C)c(OC)c3)CC21 (stereo partly shown) [I-198] | > 10 µM | > 10 µM
